{
  "source": "the kinase profiling compilation of Christmann-Franck et al. (2016)",
  "assay_in_all_cases": "radiometric filter-binding kinase assay, Kinase HotSpot",
  "settings_in_all_cases": "compound 0.5 µM; ATP 10 µM",
  "key": {"[1]": {"molecular_target": "TYK2 JH1 catalytic (human) (UniProt P29597)", "sequence (P29597 whole entry, looked up)": "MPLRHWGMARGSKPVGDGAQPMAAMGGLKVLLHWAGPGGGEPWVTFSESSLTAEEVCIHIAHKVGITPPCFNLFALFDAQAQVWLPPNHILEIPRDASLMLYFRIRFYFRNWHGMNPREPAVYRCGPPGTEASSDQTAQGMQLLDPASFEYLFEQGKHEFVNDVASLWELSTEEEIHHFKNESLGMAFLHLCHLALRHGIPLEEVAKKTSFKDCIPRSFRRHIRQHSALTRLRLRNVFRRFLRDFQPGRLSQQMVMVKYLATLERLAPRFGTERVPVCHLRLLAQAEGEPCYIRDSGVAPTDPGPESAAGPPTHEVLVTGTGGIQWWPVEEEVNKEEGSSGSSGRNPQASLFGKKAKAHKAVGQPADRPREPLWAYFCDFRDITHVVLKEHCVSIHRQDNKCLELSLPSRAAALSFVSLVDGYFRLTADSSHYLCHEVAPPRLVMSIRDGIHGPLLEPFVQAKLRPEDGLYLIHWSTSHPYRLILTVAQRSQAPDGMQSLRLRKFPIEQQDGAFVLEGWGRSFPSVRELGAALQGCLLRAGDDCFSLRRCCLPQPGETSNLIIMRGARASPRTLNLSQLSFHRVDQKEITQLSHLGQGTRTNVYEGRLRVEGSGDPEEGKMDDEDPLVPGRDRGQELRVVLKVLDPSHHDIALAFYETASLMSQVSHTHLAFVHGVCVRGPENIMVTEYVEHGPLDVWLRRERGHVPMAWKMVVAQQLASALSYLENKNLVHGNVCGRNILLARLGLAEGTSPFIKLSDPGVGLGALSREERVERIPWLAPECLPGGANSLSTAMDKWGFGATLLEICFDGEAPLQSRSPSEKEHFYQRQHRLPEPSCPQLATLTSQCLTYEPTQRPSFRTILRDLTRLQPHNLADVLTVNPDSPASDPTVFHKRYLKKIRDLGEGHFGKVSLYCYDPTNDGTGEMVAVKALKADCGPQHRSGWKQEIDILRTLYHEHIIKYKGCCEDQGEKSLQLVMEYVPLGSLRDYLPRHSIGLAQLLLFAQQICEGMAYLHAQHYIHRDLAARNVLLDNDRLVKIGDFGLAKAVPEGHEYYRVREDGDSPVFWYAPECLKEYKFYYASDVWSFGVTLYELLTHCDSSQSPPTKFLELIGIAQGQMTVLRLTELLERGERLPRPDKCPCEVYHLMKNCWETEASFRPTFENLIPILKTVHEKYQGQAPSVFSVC"}, "RPS6KB1 (human)": {"molecular_target": "RPS6KB1 (human) (UniProt P23443)"}, "ZAP70 (human)": {"molecular_target": "ZAP70 (human) (UniProt P43403)"}, "PRKCA (human)": {"molecular_target": "PRKCA (human) (UniProt P17252)"}, "NEK1 (human)": {"molecular_target": "NEK1 (human) (UniProt Q96PY6)"}, "NTRK1 (human)": {"molecular_target": "NTRK1 (human) (UniProt P04629)", "sequence (P04629 whole entry, looked up)": "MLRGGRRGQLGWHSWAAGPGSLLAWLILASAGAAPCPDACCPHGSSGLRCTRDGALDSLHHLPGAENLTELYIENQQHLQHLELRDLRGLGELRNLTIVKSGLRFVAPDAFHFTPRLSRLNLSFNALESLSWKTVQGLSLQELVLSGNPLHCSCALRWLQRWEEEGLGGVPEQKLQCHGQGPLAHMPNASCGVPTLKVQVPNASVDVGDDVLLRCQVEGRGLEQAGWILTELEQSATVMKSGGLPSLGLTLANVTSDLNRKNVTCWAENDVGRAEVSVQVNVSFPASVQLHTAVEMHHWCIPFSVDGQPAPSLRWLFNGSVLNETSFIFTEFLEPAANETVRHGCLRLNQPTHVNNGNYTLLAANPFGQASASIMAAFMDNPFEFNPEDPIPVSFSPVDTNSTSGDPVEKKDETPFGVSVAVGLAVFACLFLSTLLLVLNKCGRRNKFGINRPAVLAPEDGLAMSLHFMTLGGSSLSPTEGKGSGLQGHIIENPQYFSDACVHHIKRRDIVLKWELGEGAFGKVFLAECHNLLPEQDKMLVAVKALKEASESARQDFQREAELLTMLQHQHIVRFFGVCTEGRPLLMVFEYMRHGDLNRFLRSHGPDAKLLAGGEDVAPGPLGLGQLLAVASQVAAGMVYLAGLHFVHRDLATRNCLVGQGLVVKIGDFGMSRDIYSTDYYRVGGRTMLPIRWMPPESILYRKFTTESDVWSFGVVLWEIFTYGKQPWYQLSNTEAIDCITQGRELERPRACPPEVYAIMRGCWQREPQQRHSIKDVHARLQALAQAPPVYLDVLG"}, "MAPKAPK5 (human)": {"molecular_target": "MAPKAPK5 (human) (UniProt Q8IW41)", "sequence (Q8IW41 whole entry, looked up)": "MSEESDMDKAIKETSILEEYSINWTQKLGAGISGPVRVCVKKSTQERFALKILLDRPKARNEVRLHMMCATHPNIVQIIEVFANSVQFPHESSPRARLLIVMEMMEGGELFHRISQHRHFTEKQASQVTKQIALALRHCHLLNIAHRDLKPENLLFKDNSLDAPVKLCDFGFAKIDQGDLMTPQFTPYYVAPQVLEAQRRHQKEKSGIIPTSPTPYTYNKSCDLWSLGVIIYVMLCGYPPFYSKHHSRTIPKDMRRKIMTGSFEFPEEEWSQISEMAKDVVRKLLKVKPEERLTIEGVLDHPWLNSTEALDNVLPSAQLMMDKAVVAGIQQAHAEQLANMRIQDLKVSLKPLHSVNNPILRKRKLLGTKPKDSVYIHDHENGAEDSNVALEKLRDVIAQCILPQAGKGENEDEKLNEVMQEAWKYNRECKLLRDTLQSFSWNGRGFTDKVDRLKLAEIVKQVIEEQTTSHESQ"}, "SRPK3 (human)": {"molecular_target": "SRPK3 (human) (UniProt Q9UPE1)"}, "OXSR1 (human)": {"molecular_target": "OXSR1 (human) (UniProt O95747)"}, "STK38 (human)": {"molecular_target": "STK38 (human) (UniProt Q15208)"}, "PAK4 (human)": {"molecular_target": "PAK4 (human) (UniProt O96013)"}, "IKBKB (human)": {"molecular_target": "IKBKB (human) (UniProt O14920)"}, "CAMKK1 (human)": {"molecular_target": "CAMKK1 (human) (UniProt Q8N5S9)"}, "CAMK4 (human)": {"molecular_target": "CAMK4 (human) (UniProt Q16566)"}, "PTK6 (human)": {"molecular_target": "PTK6 (human) (UniProt Q13882)"}, "RPS6KA3 KD1 KD2 (human)": {"molecular_target": "RPS6KA3 KD1 KD2 (human) (UniProt P51812)"}, "ULK3 (human)": {"molecular_target": "ULK3 (human) (UniProt Q6PHR2)"}, "BRSK2 (human)": {"molecular_target": "BRSK2 (human) (UniProt Q8IWQ3)"}, "MAP3K14 (human)": {"molecular_target": "MAP3K14 (human) (UniProt Q99558)"}, "CDK1 CCNA2 (human)": {"molecular_target": "CDK1 CCNA2 (human) (UniProt P06493+P20248)"}, "LYN (human)": {"molecular_target": "LYN (human) (UniProt P07948)", "sequence (P07948 whole entry, looked up)": "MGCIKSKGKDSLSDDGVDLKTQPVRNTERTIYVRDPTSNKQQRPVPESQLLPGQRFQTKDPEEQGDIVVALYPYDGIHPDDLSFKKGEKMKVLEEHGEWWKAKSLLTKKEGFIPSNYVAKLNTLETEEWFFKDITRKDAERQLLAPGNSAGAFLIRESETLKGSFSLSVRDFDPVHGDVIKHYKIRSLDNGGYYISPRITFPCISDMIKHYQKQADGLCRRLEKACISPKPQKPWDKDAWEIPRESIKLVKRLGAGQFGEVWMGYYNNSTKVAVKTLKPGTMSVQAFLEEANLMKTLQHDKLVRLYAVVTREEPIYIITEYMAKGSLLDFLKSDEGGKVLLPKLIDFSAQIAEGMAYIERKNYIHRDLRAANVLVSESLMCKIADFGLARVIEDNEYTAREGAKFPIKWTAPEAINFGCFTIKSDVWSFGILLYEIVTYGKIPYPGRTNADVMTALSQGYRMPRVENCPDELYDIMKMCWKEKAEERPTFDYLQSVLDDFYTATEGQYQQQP"}, "PAK2 (human)": {"molecular_target": "PAK2 (human) (UniProt Q13177)"}, "SYK (human)": {"molecular_target": "SYK (human) (UniProt P43405)"}, "JAK3 JH1 JH2 (human)": {"molecular_target": "JAK3 JH1 JH2 (human) (UniProt P52333)"}, "TXK (human)": {"molecular_target": "TXK (human) (UniProt P42681)"}, "DCLK2 (human)": {"molecular_target": "DCLK2 (human) (UniProt Q8N568)"}, "PRKCH (human)": {"molecular_target": "PRKCH (human) (UniProt P24723)"}, "MET (human)": {"molecular_target": "MET (human) (UniProt P08581)"}, "DYRK1B (human)": {"molecular_target": "DYRK1B (human) (UniProt Q9Y463)"}, "RIPK2 (human)": {"molecular_target": "RIPK2 (human) (UniProt O43353)"}, "STK16 (human)": {"molecular_target": "STK16 (human) (UniProt O75716)", "sequence (O75716 whole entry, looked up)": "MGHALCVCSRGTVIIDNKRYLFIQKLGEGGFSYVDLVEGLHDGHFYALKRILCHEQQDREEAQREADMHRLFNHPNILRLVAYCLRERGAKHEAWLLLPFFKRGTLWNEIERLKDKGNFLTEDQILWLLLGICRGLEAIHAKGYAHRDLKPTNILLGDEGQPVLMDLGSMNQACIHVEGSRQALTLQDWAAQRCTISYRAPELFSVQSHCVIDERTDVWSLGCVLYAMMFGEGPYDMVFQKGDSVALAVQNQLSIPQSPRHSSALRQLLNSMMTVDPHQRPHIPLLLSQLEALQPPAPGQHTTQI"}, "IGF1R (human)": {"molecular_target": "IGF1R (human) (UniProt P08069)"}, "AURKA (human)": {"molecular_target": "AURKA (human) (UniProt O14965)", "sequence (O14965 whole entry, looked up)": "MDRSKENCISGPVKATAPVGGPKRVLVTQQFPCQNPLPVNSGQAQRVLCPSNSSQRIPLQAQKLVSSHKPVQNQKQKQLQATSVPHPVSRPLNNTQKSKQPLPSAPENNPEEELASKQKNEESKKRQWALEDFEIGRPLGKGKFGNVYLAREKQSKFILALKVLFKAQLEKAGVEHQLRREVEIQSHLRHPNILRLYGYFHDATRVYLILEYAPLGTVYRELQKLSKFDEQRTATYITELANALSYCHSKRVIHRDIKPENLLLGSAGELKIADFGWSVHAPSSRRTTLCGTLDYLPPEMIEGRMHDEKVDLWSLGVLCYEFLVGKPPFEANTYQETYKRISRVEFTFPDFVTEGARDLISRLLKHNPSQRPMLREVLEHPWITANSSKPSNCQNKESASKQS"}, "PAK6 (human)": {"molecular_target": "PAK6 (human) (UniProt Q9NQU5)"}, "PDPK1 (human)": {"molecular_target": "PDPK1 (human) (UniProt O15530)"}, "AKT1 (human)": {"molecular_target": "AKT1 (human) (UniProt P31749)"}, "MAPK9 (human)": {"molecular_target": "MAPK9 (human) (UniProt P45984)"}, "PRKCB2 (human)": {"molecular_target": "PRKCB2 (human) (UniProt P05771)"}, "ABL2 (human)": {"molecular_target": "ABL2 (human) (UniProt P42684)", "sequence (P42684 whole entry, looked up)": "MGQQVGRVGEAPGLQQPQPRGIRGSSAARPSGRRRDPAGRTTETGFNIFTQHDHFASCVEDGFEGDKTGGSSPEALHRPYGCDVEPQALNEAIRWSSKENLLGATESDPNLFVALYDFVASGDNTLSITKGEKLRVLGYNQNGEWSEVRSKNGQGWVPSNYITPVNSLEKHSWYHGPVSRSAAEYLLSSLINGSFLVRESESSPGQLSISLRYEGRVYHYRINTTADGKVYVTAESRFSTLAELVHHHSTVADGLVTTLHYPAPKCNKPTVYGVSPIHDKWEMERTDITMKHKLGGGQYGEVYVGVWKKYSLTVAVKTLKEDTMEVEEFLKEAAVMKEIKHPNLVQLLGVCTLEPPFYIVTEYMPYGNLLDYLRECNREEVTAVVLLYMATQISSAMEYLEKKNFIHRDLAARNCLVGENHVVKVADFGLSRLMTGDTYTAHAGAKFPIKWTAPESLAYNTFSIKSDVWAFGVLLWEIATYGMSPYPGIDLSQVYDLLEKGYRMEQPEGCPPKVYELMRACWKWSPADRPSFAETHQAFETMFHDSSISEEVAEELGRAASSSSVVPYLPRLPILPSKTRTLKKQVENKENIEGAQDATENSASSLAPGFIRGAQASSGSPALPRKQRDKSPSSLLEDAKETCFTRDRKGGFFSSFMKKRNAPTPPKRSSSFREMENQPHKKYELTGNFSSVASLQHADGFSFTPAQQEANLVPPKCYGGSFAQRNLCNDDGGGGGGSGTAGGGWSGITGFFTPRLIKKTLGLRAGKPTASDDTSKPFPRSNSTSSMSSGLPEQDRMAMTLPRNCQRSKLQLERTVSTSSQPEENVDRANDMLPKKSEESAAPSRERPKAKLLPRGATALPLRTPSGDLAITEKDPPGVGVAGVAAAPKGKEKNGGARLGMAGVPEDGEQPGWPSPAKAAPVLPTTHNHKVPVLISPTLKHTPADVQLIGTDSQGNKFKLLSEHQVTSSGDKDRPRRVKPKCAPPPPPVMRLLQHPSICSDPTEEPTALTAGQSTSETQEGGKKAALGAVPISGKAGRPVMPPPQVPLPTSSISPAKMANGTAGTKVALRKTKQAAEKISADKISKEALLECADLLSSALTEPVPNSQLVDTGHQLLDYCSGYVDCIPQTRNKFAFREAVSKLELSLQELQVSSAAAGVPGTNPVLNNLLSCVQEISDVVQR"}, "CAMKK2 (human)": {"molecular_target": "CAMKK2 (human) (UniProt Q96RR4)"}, "CDK3 CCNE1 (human)": {"molecular_target": "CDK3 CCNE1 (human) (UniProt Q00526+P24864)"}, "MARK1 (human)": {"molecular_target": "MARK1 (human) (UniProt Q9P0L2)"}},
  "note": "Values joined by “and” are separate entries in the source; they are usually repeats but may differ in a detail not shown here. Equal entries are not always repeated.",
  "data": [
    {"smiles": "Nc1ccc2ncnc(NCCc3ccc(Oc4ccccc4)cc3)c2c1", "values": [
      {"measurement": "residual activity", "setting": "[1]", "value": 99.9, "unit": "%"},
      {"measurement": "residual activity", "setting": "RPS6KB1 (human)", "value": 99.5, "unit": "%"},
      {"measurement": "residual activity", "setting": "ZAP70 (human)", "value": 93.2, "unit": "%"},
      {"measurement": "residual activity", "setting": "PRKCA (human)", "value": 103, "unit": "%"},
      {"measurement": "residual activity", "setting": "NEK1 (human)", "value": 102, "unit": "%"},
      {"measurement": "residual activity", "setting": "NTRK1 (human)", "value": 108, "unit": "%"},
      {"measurement": "residual activity", "setting": "MAPKAPK5 (human)", "value": 101, "unit": "%"},
      {"measurement": "residual activity", "setting": "SRPK3 (human)", "value": 96.6, "unit": "%"},
      {"measurement": "residual activity", "setting": "OXSR1 (human)", "value": 101, "unit": "%"},
      {"measurement": "residual activity", "setting": "STK38 (human)", "value": 97.9, "unit": "%"},
      {"measurement": "residual activity", "setting": "PAK4 (human)", "value": 105, "unit": "%"},
      {"measurement": "residual activity", "setting": "IKBKB (human)", "value": 100, "unit": "%"},
      {"measurement": "residual activity", "setting": "CAMKK1 (human)", "value": 119, "unit": "%"},
      {"measurement": "residual activity", "setting": "CAMK4 (human)", "value": 98.9, "unit": "%"},
      {"measurement": "residual activity", "setting": "PTK6 (human)", "value": 93.3, "unit": "%"},
      {"measurement": "residual activity", "setting": "RPS6KA3 KD1 KD2 (human)", "value": 101, "unit": "%"},
      {"measurement": "residual activity", "setting": "ULK3 (human)", "value": 112, "unit": "%"},
      {"measurement": "residual activity", "setting": "BRSK2 (human)", "value": 102, "unit": "%"},
      {"measurement": "residual activity", "setting": "MAP3K14 (human)", "value": 109, "unit": "%"},
      {"measurement": "residual activity", "setting": "CDK1 CCNA2 (human)", "value": 98.9, "unit": "%"},
      {"measurement": "residual activity", "setting": "LYN (human)", "value": "101% and 103%"},
      {"measurement": "residual activity", "setting": "PAK2 (human)", "value": 102, "unit": "%"},
      {"measurement": "residual activity", "setting": "SYK (human)", "value": 102, "unit": "%"},
      {"measurement": "residual activity", "setting": "JAK3 JH1 JH2 (human)", "value": 96.9, "unit": "%"},
      {"measurement": "residual activity", "setting": "TXK (human)", "value": 102, "unit": "%"},
      {"measurement": "residual activity", "setting": "DCLK2 (human)", "value": 99.1, "unit": "%"},
      {"measurement": "residual activity", "setting": "PRKCH (human)", "value": 97.9, "unit": "%"},
      {"measurement": "residual activity", "setting": "MET (human)", "value": 99.9, "unit": "%"},
      {"measurement": "residual activity", "setting": "DYRK1B (human)", "value": 104, "unit": "%"},
      {"measurement": "residual activity", "setting": "RIPK2 (human)", "value": 94.6, "unit": "%"},
      {"measurement": "residual activity", "setting": "STK16 (human)", "value": 94.7, "unit": "%"},
      {"measurement": "residual activity", "setting": "IGF1R (human)", "value": 99.7, "unit": "%"},
      {"measurement": "residual activity", "setting": "AURKA (human)", "value": 105, "unit": "%"},
      {"measurement": "residual activity", "setting": "PAK6 (human)", "value": 105, "unit": "%"},
      {"measurement": "residual activity", "setting": "PDPK1 (human)", "value": 105, "unit": "%"},
      {"measurement": "residual activity", "setting": "AKT1 (human)", "value": 98.2, "unit": "%"},
      {"measurement": "residual activity", "setting": "MAPK9 (human)", "value": 85, "unit": "%"},
      {"measurement": "residual activity", "setting": "PRKCB2 (human)", "value": 104, "unit": "%"},
      {"measurement": "residual activity", "setting": "ABL2 (human)", "value": 102, "unit": "%"},
      {"measurement": "residual activity", "setting": "CAMKK2 (human)", "value": 92.6, "unit": "%"},
      {"measurement": "residual activity", "setting": "CDK3 CCNE1 (human)", "value": 94.8, "unit": "%"},
      {"measurement": "residual activity", "setting": "MARK1 (human)", "value": 103, "unit": "%"}
    ]}
  ]
}
